This is an account of results in article PMC11356839, “The Synthesis of SNAC Phenolate Salts and the Effect on Oral Bioavailability of Semaglutide” (Molecules, 2024).

The conditions of data set [1]: rat, in vivo. On the procedure: All compounds are powders.
IV solution was prepared by dissolving semaglutide in water containing disodium phosphate (0.014% w/v), propylene glycol (0.144% w/v), and phenol (0.056% w/v). The solution was diluted by 3 to reach semaglutide concentration of 0.046mg/mL and filtrated by a sterile 0.22 μm syringe filter.
Pharmacokinetic study protocol: Male Wistar rats (275–300 g, Harlan, Israel) were kept under a 12 h light/dark cycle, with free access to food and water. Animals were anesthetized, and an indwelling cannula was placed into the right jugular vein for systemic blood sampling. The cannula was tunneled beneath the skin and exteriorized at the dorsal part of the neck. The animals were transferred to individual cages to recover overnight (12–18 h). Throughout the experiments, free access to food was available 4 h post-oral administration.
Oral SNAC or salt formulations were dispersed in distilled water and then administrated by oral gavage (~1.2 mL for a rat to get semaglutide dose of 12 mg/kg). Blood samples (0.36 mL) were obtained by intravenous cannula, placed into the jugular vein. In the case of oral administration, samples were taken at 5 min pre-dose intervals and at different time points post-dose, according to the pharmacokinetic profile (no more than 10% of rat blood volume was drawn). To prevent dehydration, physiological solutions were administered, following each blood sampling. Plasma was separated by centrifugation (4000 rpm, 7 min, 4 °C) and stored at −20 °C until use.
Plasma samples were analyzed by a developed LC-MS method for semaglutide.
Absolute bioavailability values and other pharmacokinetic observations were assessed by comparison to intravenous bolus of semaglutide.
Semaglutide in plasma was performed in an Eppendorf® tube by mixing 150 μL of the plasma sample with 150 μL acetonitrile (ACN) and 15 μL of 5% formic acid (FA) and vortexed for 5 min. The tube was centrifuged at 15 °C, 6000 rpm for 6 min. Then, 160 μL of the supernatant was collected in a new tube. A second extraction was performed for the remaining precipitant by adding 60 μL of 5% FA, followed by mixing and centrifugation. Supernatant, 50 μL, was transferred into a tube. The solvent was evaporated to dryness, reconstituted with 50 μL 5% FA, and analyzed by an LC-MS system. Semaglutide standards were prepared by spiking semaglutide solutions in 5% FA into plasma to obtain final concentrations of 1–0.005 μg/mL. The same extraction procedure was performed on the standards as well.
MS/MS analyses were determined on a Sciex (Framingham, MA, USA) QTRAP® 6500^+ mass spectrometer). The chromatography analysis was performed using reverse-phase conditions using a Shimadzu (Kyoto, Japan) UHPLC System, consisting of a Shimadzu CBM-20A communication bus module, Nexera X2 LC-30AD pump, including a Shimadzu DGU-20A5R degasser, a Shimadzu SIL-30AC autosampler, and a Shimadzu CTO-20AC column oven. Liquid chromatography separation was obtained using 10 μL injections of samples onto an XBridge Peptide BEH C18 column (3.5 µm 300Å, 50 × 2.1 mm) from Waters Corp. (Milford, MA, USA), protected by a SecurityGuard™ (Phenomenex, Torrance, CA, USA) cartridge (C18, 2 × 2.1 mm). The column was maintained at 40 °C during the entire analysis. Gradient elution mobile phases consisted of 0.1% formic acid in water (Phase A) and 0.1% formic acid in methanol (Phase B). A flow rate of 0.2 mL/min was applied with a linear gradient from 60% to 80% B over 3.5 min and then held at 80% B for additional 4.5 min. The column was then equilibrated for 6 min at starting conditions prior to the injection of the next sample. The gradient elution program (0.2 mL/min) is described in Table 1.

For data set [2] the following is noted: dogs, semaglutide formulated with SNAC tablet; cited from earlier work. From the text: The professional literature has contained studies concerning the mechanism of SNAC to enhance permeability. […] SNAC increases lipophilicity of the formulation and causes a local increase in pH via a buffering action.
The conditions of data set [3]: clinical study, cited from earlier work. From the text:
Preclinical studies reached similar conclusions, although with slightly different values. It is important to remember that the study model, as well as the specific drug being investigated, plays a role in the results, as the drug’s properties and size also affect its absorption. Semaglutide, being ...

Turning to `CC[C@H](C)[C@H](NC(=O)[C@H](Cc1ccccc1)NC(=O)[C@H](CCC(=O)O)NC(=O)[C@H](CCCCNC(=O)COCCOCCNC(=O)COCCOCCNC(=O)CC[C@H](NC(=O)CCCCCCCCCCCCCCCCC(=O)O)C(=O)O)NC(=O)[C@H](C)NC(=O)[C@H](C)NC(=O)[C@H](CCC(N)=O)NC(=O)CNC(=O)[C@H](CCC(=O)O)NC(=O)[C@H](CC(C)C)NC(=O)[C@H](Cc1ccc(O)cc1)NC(=O)[C@H](CO)NC(=O)[C@H](CO)NC(=O)[C@@H](NC(=O)[C@H](CC(=O)O)NC(=O)[C@H](CO)NC(=O)[C@@H](NC(=O)[C@H](Cc1ccccc1)NC(=O)[C@@H](NC(=O)CNC(=O)[C@H](CCC(=O)O)NC(=O)C(C)(C)NC(=O)[C@@H](N)Cc1cnc[nH]1)[C@@H](C)O)[C@@H](C)O)C(C)C)C(=O)N[C@@H](C)C(=O)N[C@@H](Cc1c[nH]c2ccccc12)C(=O)N[C@@H](CC(C)C)C(=O)N[C@H](C(=O)N[C@@H](CCCNC(=N)N)C(=O)NCC(=O)N[C@@H](CCCNC(=N)N)C(=O)NCC(=O)O)C(C)C` [semaglutide, Semaglutide], the “semaglutide absorption after oral administration not including SNACs” value in data set [1] was “negligible semaglutide absorption”. Besides, in data set [2], the “semaglutide concentration underneath the tablet compared to 6 cm at a further distance” value is recorded as 10 fold.

For SNAC–phosphatidylcholine [PC], in data set [1] (po, 12 mg/kg), the “AUC0−8” value turned out to be 5.083 ± 1.478 µg·h/mL, the “AUC0−∞” value was 7.729 ± 2.928 µg·h/mL, the Cmax stood at 0.945 ± 0.295 µg/mL and the “fold increase in AUC0−8 over the original SNAC formulation” value is ~ 3 fold. In addition, in data set [1] (po, 12 mg/kg), the “fold increase in AUC0−∞ over the original SNAC formulation” value was ~ 4 fold and the “fold increase in F% over the original SNAC formulation” value is on record as ~ 4 fold.

Turning to vitamin B12, the “absolute absorption, formulation with SNAC” value in data set [3] (oral vitamin B12 affected by SNAC) is 5%. Besides, in data set [3] (oral vitamin B12 commercial product), the “absolute absorption, commercial product” value was 2%.

One may read the Cmax as the maximum level reached in the sampled fluid or tissue.
